Assay results reported in patent publication US10253322B2, “Method for the production of transgenic plants” (MONSANTO TECHNOLOGY LLC, priority 2001, dated 2019).

Key:
[1] = tested on: wheat mesocotyl explants; experiment: Multiple shoot production with cytokinins alone, wheat mesocotyl explants; assay type: cell-based; settings: cytokinin 5 mg/L, 32 days after culture
Experimental: A. Wheat mesocotyl explant: Mature wheat seeds were surface sterilized first in 70% ethanol for 1 min. and then soaked in 20% CLOROX® (5.25% sodium hypochlorite) and shaken at 250 rpm for 20 min. The seeds were then rinsed five times with sterile distilled water and then placed in 100×25 mm petri dishes containing a sterile piece of felt and ˜15 mL of double distilled sterile water with 5 μM BA for germination. The seeds were cultured for 1 day in darkness at ˜24° C. Mesocotyl sections about 2-3 mm in length were then excised by removing the upper portion of the coleoptile, approximately 1-1.5 mm in length, and root tissue around the crown region. These mesocotyl explants contain at least several different and distinct meristems, such as a scutellar node, a coleoptile node, a first leaf bud and possibly several leaf nodes, and an apical meristem. This mesocotyl explant thus comprises an apical meristem and several axillary meristems, including the scutellar node meristem. […] It is also important that the explants have all of the described meristems intact after excision, in order to maximize multiple bud response in culture.
Wheat explants such as mesocotyl sections from seedlings, mature embryos from mature seeds, and immature embryos from immature seeds were cultured on multiple shoot inducing media comprising combinations of cytokinins, auxins and abscisic acid (ABA). […] The particular media compositions used for this invention are described in detail in Table 1. The mesocotyl explants were placed on media with the acropetal end up, and mature and immature embryo explants were placed on media with the scutellum-side up. […]
For the first three weeks, the explants were usually trimmed, by removing the top portion of coleoptile 3-5 mm above the crown region for wheat, every 3 to 5 days to inhibit dominant growth.
Four different cytokinins, not in combination with auxin, were tested for their ability to induce multiple shoot induction on wheat mesocotyl explants: BA, kinetin, zeatin and TDZ.

[2] = tested on: shoots from Bobwhite mesocotyl explants; experiment: Root induction of elongated shoots; assay type: cell-based, wheat; settings: IBA 1 mg/L
Experimental: Usually three to five weeks after the induction stage culture described above, multiple bud clumps were divided and transferred to a shoot elongation medium, and cultured under 16 h photoperiod at about 25° C. for 3 to 4 weeks. The shoot elongation medium comprised MS basal medium supplemented with ascorbic acid at 100 mg/L, 2-[N-Morpholino]ethanesulfonic acid (MES) at 1.95 g/L, casein hydrolysate at 100 mg/L, maltose at 40 g/L, and Schweizer-Hall® gelling agent at 2 g/L. The elongated shoots were transferred to a rooting medium, comprising MS basal medium supplemented with IBA at 1 mg/L, ascorbic acid at 100 mg/L, 2-[N-Morpholino] ethanesulfonic acid (MES) at 1.95 g/L, casein hydrolysate at 100 mg/L, maltose at 40 g/L, and Schweizer-Hall® gelling agent at 2 g/L, for 3 to 4 weeks, after which sufficient roots had formed to transfer the shoots to soil.
Three genotypes were tested to evaluate shoot elongation from the buds induced in the above described multiple shoot induction step. Bobwhite, 251BW012 and Autry525 were chosen as representative standard, good and poor lines respectively, based on a previous study of embryogenic regeneration capacity. The buds were removed from the media containing the growth regulator combination described in the induction stage, after about 3-5 weeks of culture. […]

[3] = tested on: wheat mesocotyl explants; experiment: Multiple bud induction from primary meristems on multiple shoot inducing media, wheat mesocotyl explants; assay type: cell-based; settings: 4 weeks after culture initiation (Table 3)
Experimental: A. Wheat mesocotyl explant: Mature wheat seeds were surface sterilized first in 70% ethanol for 1 min. and then soaked in 20% CLOROX® (5.25% sodium hypochlorite) and shaken at 250 rpm for 20 min. The seeds were then rinsed five times with sterile distilled water and then placed in 100×25 mm petri dishes containing a sterile piece of felt and ˜15 mL of double distilled sterile water with 5 μM BA for germination. The seeds were cultured for 1 day in darkness at ˜24° C. Mesocotyl sections about 2-3 mm in length were then excised by removing the upper portion of the coleoptile, approximately 1-1.5 mm in length, and root tissue around the crown region. These mesocotyl explants contain at least several different and distinct meristems, such as a scutellar node, a coleoptile node, a first leaf bud and possibly several leaf nodes, and an apical meristem. This mesocotyl explant thus comprises an apical meristem and several axillary meristems, including the scutellar node meristem. It is important when excising the mesocotyl explant to leave a whole piece of the scutellum attached to the explant, because the scutellar node meristem contributes a large primary meristem from which upwards of 100 buds can be produced via the method of the present invention, relative to the small primary meristems contributed by the other meristems from which a smaller number of buds can be produced. […]

[4] = (D) continuous dark first two weeks, then light 16/8 two weeks
[5] = (L) 16 h photoperiod for four weeks

Structure (SMILES) | % of explants producing 2-5 shoots (each from a single primary meristem) [1, 4] | % of explants producing multiple shoots from a single primary meristem [1, 4] | % of explants producing 2-5 shoots (each from a single primary meristem) [1, 5] | % of explants producing multiple shoots from a single primary meristem [1, 5] | % shoots producing roots [2] | % explants producing 20-80 buds/primary meristem [3] | No. primary meristems produced/explant [3]
c1ccc(CNc2ncnc3nc[nH]c23)cc1 [BA, 6-benzylaminopurine] | 15.0% | 0% | 10.0% | 0% | – | – | –
O=C(O)CCCc1c[nH]c2ccccc12 [IBA, 3-indolebutyric acid] | – | – | – | – | significantly increased the rooting response | – | –
O=C(Nc1ccccc1)Nc1cnns1 [TDZ, thidiazuron] | 76.2% | 0% | 80.0% | 0% | – | 0% | 2-5
c1coc(CNc2ncnc3[nH]cnc23)c1 [Kinetin, kinetin] | 23.8% | 0% | 20.0% | 0% | – | – | –
C/C(=C\CNc1ncnc2[nH]cnc12)CO [Zeatin, zeatin] | 45.0% | 0% | 20.0% | 0% | – | – | –
